Key:
[1] = system: A498; experiment: Growth inhibition of human A498 cells measured after 48 hrs by SRB assay; format: functional
[2] = target: Serine/threonine-protein kinase B-raf (Homo sapiens, UniProt P15056); experiment: Inhibition of human BRAF at 10 uM using MEK1 (K97R) as substrate in presence of [gamma-33P]ATP by scintillation counting method relative to control
[3] = system: HCT-116; experiment: Growth inhibition of human HCT-116 cells measured after 48 hrs by SRB assay; format: functional
[4] = system: RPMI-8226; experiment: Growth inhibition of human RPMI-8226 cells measured after 48 hrs by SRB assay; format: functional
[5] = system: OVCAR-4; experiment: Growth inhibition of human OVCAR-4 cells measured after 48 hrs by SRB assay; format: functional
[6] = system: HOP-92; experiment: Growth inhibition of human HOP-92 cells measured after 48 hrs by SRB assay; format: functional
[7] = system: PC-3; experiment: Growth inhibition of human PC-3 cells measured after 48 hrs by SRB assay; format: functional
[8] = target: RAF proto-oncogene serine/threonine-protein kinase (Homo sapiens, UniProt P04049); experiment: Inhibition of human CRAF at 10 uM using MEK1 (K97R) as substrate in presence of [gamma-33P]ATP by scintillation counting method relative to control
[9] = system: SK-MEL-5; experiment: Growth inhibition of human SK-MEL-5 cells measured after 48 hrs by SRB assay; format: functional
[10] = system: SF-295; experiment: Growth inhibition of human SF-295 cells measured after 48 hrs by SRB assay; format: functional
[11] = system: Serine/threonine-protein kinase B-raf (Homo sapiens), P15056 [V600E]; experiment: Inhibition of human BRAF V600E mutant at 10 uM using MEK1 (K97R) as substrate in presence of [gamma-33P]ATP by scintillation counting method relative to control
[12] = system: BT-549; experiment: Growth inhibition of human BT-549 cells measured after 48 hrs by SRB assay; format: functional
[13] = system: HL-60(TB); experiment: Growth inhibition of human HL-60(TB) cells measured after 48 hrs by SRB assay; format: functional
[14] = system: EKVX; experiment: Growth inhibition of human EKVX cells measured after 48 hrs by SRB assay; format: functional
[15] = system: Malme-3M; experiment: Growth inhibition of human Malme-3M cells measured after 48 hrs by SRB assay; format: functional
[16] = system: CAKI-1; experiment: Growth inhibition of human CAKI-1 cells measured after 48 hrs by SRB assay; format: functional
[17] = system: U-251; experiment: Growth inhibition of human U-251 cells measured after 48 hrs by SRB assay; format: functional
[18] = system: SK-MEL-2; experiment: Growth inhibition of human SK-MEL-2 cells measured after 48 hrs by SRB assay; format: functional
[19] = system: KM12; experiment: Growth inhibition of human KM12 cells measured after 48 hrs by SRB assay; format: functional
[20] = system: SW-620; experiment: Growth inhibition of human SW-620 cells measured after 48 hrs by SRB assay; format: functional
[21] = system: TK-10; experiment: Growth inhibition of human TK-10 cells measured after 48 hrs by SRB assay; format: functional
[22] = system: RXF 393; experiment: Growth inhibition of human RXF 393 cells measured after 48 hrs by SRB assay; format: functional
[23] = system: COLO 205; experiment: Growth inhibition of human COLO 205 cells measured after 48 hrs by SRB assay; format: functional
[24] = system: SF-539; experiment: Growth inhibition of human SF-539 cells measured after 48 hrs by SRB assay; format: functional
[25] = system: UO-31; experiment: Growth inhibition of human UO-31 cells measured after 48 hrs by SRB assay; format: functional
[26] = system: NCI-H522; experiment: Growth inhibition of human NCI-H522 cells measured after 48 hrs by SRB assay; format: functional
[27] = system: MOLT-4; experiment: Growth inhibition of human MOLT-4 cells measured after 48 hrs by SRB assay; format: functional
[28] = system: OVCAR-5; experiment: Growth inhibition of human OVCAR-5 cells measured after 48 hrs by SRB assay; format: functional
[29] = system: NCI-H460; experiment: Growth inhibition of human NCI-H460 cells measured after 48 hrs by SRB assay; format: functional
[30] = system: NCI-H23; experiment: Growth inhibition of human NCI-H23 cells measured after 48 hrs by SRB assay; format: functional
[31] = system: LOX IMVI; experiment: Growth inhibition of human LOX IMVI cells measured after 48 hrs by SRB assay; format: functional
[32] = system: NCI/ADR-RES; experiment: Growth inhibition of human NCI/ADR-RES cells measured after 48 hrs by SRB assay; format: functional
[33] = system: M14; experiment: Growth inhibition of human M14 cells measured after 48 hrs by SRB assay; format: functional
[34] = system: 786-0; experiment: Growth inhibition of human 786-0 cells measured after 48 hrs by SRB assay; format: functional
[35] = system: SNB-19; experiment: Growth inhibition of human SNB-19 cells measured after 48 hrs by SRB assay; format: functional
[36] = system: ACHN; experiment: Growth inhibition of human ACHN cells measured after 48 hrs by SRB assay; format: functional
[37] = system: DU-145; experiment: Growth inhibition of human DU-145 cells measured after 48 hrs by SRB assay; format: functional
[38] = system: HT-29; experiment: Growth inhibition of human HT-29 cells measured after 48 hrs by SRB assay; format: functional
[39] = system: SK-OV-3; experiment: Growth inhibition of human SK-OV-3 cells measured after 48 hrs by SRB assay; format: functional
[40] = system: NCI-H226; experiment: Growth inhibition of human NCI-H226 cells measured after 48 hrs by SRB assay; format: functional
[41] = system: SN12C; experiment: Growth inhibition of human SN12C cells measured after 48 hrs by SRB assay; format: functional
[42] = system: SNB-75; experiment: Growth inhibition of human SNB-75 cells measured after 48 hrs by SRB assay; format: functional
[43] = system: SR; experiment: Growth inhibition of human SR cells measured after 48 hrs by SRB assay; format: functional
[44] = system: HOP-62; experiment: Growth inhibition of human HOP-62 cells measured after 48 hrs by SRB assay; format: functional
[45] = system: HCT-15; experiment: Growth inhibition of human HCT-15 cells measured after 48 hrs by SRB assay; format: functional
[46] = system: HCC 2998; experiment: Growth inhibition of human HCC 2998 cells measured after 48 hrs by SRB assay; format: functional
[47] = system: NCI-H322M; experiment: Growth inhibition of human NCI-H322M cells measured after 48 hrs by SRB assay; format: functional
[48] = system: Hs-578T; experiment: Growth inhibition of human Hs-578T cells measured after 48 hrs by SRB assay; format: functional
[49] = system: T47D; experiment: Growth inhibition of human T47D cells measured after 48 hrs by SRB assay; format: functional
[50] = system: SK-MEL-28; experiment: Growth inhibition of human SK-MEL-28 cells measured after 48 hrs by SRB assay; format: functional
[51] = system: MDA-MB-435; experiment: Growth inhibition of human MDA-MB-435 cells measured after 48 hrs by SRB assay; format: functional
[52] = system: UACC-62; experiment: Growth inhibition of human UACC-62 cells measured after 48 hrs by SRB assay; format: functional
[53] = system: MDA-MB-231; experiment: Growth inhibition of human MDA-MB-231 cells measured after 48 hrs by SRB assay; format: functional
[54] = system: A549; experiment: Growth inhibition of human A549 cells measured after 48 hrs by SRB assay; format: functional
[55] = system: CCRF-CEM; experiment: Growth inhibition of human CCRF-CEM cells measured after 48 hrs by SRB assay; format: functional
[56] = system: MCF7; experiment: Growth inhibition of human MCF7 cells measured after 48 hrs by SRB assay; format: functional
[57] = system: K562; experiment: Growth inhibition of human K562 cells measured after 48 hrs by SRB assay; format: functional
[58] = system: IGROV-1; experiment: Growth inhibition of human IGROV-1 cells measured after 48 hrs by SRB assay; format: functional
[59] = system: UACC-257; experiment: Growth inhibition of human UACC-257 cells measured after 48 hrs by SRB assay; format: functional
[60] = system: OVCAR-3; experiment: Growth inhibition of human OVCAR-3 cells measured after 48 hrs by SRB assay; format: functional
[61] = system: OVCAR-8; experiment: Growth inhibition of human OVCAR-8 cells measured after 48 hrs by SRB assay; format: functional

Chain of Serine/threonine-protein kinase B-raf (Homo sapiens), P15056 [V600E] (P15056 whole entry V600E): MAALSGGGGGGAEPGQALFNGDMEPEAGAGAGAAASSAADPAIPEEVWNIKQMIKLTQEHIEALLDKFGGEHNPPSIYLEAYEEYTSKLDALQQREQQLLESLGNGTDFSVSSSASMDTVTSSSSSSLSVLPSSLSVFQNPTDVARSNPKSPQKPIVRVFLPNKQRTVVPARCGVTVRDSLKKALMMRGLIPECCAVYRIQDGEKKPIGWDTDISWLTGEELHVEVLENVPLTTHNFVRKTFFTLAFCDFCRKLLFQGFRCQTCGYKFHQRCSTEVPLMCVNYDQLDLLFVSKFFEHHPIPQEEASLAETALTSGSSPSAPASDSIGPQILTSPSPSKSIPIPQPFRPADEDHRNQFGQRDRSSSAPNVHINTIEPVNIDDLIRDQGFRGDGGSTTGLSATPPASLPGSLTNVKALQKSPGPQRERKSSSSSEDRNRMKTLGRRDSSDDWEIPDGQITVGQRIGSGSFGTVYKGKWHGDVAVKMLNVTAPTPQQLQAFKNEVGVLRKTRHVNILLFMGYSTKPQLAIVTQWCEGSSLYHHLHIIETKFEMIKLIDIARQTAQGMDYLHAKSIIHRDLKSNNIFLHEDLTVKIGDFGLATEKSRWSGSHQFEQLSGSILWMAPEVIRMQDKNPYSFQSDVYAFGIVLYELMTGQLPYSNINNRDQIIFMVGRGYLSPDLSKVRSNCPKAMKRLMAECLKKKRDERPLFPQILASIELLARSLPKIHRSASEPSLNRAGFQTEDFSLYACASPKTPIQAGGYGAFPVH
Chain of RAF proto-oncogene serine/threonine-protein kinase (P04049 whole entry): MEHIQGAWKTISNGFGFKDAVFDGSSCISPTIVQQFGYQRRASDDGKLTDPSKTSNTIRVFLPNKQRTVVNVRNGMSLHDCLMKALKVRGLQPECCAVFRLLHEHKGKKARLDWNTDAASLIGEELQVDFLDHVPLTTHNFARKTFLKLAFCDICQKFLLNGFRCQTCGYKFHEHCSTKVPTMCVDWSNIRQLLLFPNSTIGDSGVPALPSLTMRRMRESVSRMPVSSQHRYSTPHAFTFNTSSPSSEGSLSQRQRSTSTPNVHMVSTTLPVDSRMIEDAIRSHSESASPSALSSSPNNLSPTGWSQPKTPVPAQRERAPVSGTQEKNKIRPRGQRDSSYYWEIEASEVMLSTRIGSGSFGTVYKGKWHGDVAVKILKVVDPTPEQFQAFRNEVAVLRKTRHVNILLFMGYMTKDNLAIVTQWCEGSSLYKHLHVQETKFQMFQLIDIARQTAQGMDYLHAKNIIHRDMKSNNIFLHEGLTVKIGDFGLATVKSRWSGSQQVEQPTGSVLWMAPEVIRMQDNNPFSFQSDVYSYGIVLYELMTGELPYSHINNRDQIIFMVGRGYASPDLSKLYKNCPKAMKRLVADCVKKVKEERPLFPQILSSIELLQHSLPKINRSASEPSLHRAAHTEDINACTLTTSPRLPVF
Chain of Serine/threonine-protein kinase B-raf (P15056 whole entry): as the sequence (P15056 whole entry V600E) above, with E600V counted along it

In the case of `COc1cc2cc(Oc3ccc(NC(=O)c4cc(C(F)(F)F)cc(C(F)(F)F)c4)cc3)c(C)nc2cc1OC`, the GI50 [1] is reported as 1.13 µM, the inhibition [2] is reported as < 47% and the GI50 [3] is reported as 1.56 µM. It also gave a GI50 [4] of 1.57 µM, a GI50 [5] of 4.53 µM and a GI50 [6] of 1.82 µM. It also gave a GI50 [7] of 1.66 µM, an inhibition [8] of 76.7% and a GI50 [9] of 2.76 µM. For the same compound, the GI50 [10] was 1.64 µM, the inhibition [11] was < 47% and the GI50 [12] was 3.02 µM.
With `Cc1ccc(NC(=O)c2ccc(CN3CCN(C)CC3)cc2)cc1Nc1nccc(-c2cccnc2)n1` [IMATINIB] the GI50 [13] was 13.5 µM, the GI50 [14] was 26.2 µM and the GI50 [15] was 16.3 µM. It also gave a GI50 [16] of 34 µM, a GI50 [17] of 18 µM and a GI50 [18] of 25 µM. It also gave a GI50 [19] of 18.8 µM, a GI50 [20] of 23.4 µM and a GI50 [21] of 26.9 µM. For the same compound, the GI50 [22] was 15.1 µM, the GI50 [23] was 17.6 µM and the GI50 [24] was 10.6 µM. For the same compound, the GI50 [1] was 22 µM, the GI50 [25] was 22.3 µM and the GI50 [26] was 16.4 µM. For the same compound, the GI50 [27] was 5.13 µM, the GI50 [28] was 0.58 µM and the GI50 [3] was 12.6 µM. It also gave a GI50 [4] of 6.05 µM, a GI50 [29] of 16.2 µM and a GI50 [30] of 15 µM. It also gave a GI50 [31] of 18.1 µM, a GI50 [32] of 23 µM and a GI50 [5] of 20 µM. For the same compound, the GI50 [33] was 19.3 µM, the GI50 [34] was 16 µM and the GI50 [35] was 38.6 µM. It also gave a GI50 [36] of 25.2 µM, a GI50 [6] of 13.3 µM and a GI50 [37] of 18.8 µM. The GI50 [38] was 3.97 µM, the GI50 [39] was 28.9 µM and the GI50 [40] was 18.1 µM. For the same compound, the GI50 [41] was 33.2 µM, the GI50 [42] was 20.3 µM and the GI50 [43] was 7.14 µM. For the same compound, the GI50 [44] was 21.5 µM, the GI50 [45] was 19.9 µM and the GI50 [46] was 21.2 µM. It also gave a GI50 [47] of 22.8 µM, a GI50 [7] of 21.4 µM and a GI50 [48] of 14.6 µM. The GI50 [49] was 19.9 µM, the GI50 [50] was 14.6 µM and the GI50 [51] was 17.9 µM. It also gave a GI50 [9] of 12.1 µM, a GI50 [52] of 19 µM and a GI50 [10] of 19.8 µM. It also gave a GI50 [53] of 18.7 µM, a GI50 [54] of 24.5 µM and a GI50 [55] of 17 µM. For the same compound, the GI50 [56] was 18.2 µM, the GI50 [57] was 0.02 µM and the GI50 [58] was 21.2 µM. For the same compound, the GI50 [12] was 16.1 µM, the GI50 [59] was 21.1 µM and the GI50 [60] was 34.2 µM. The GI50 [61] was 27.7 µM.

Source: ChEMBL document CHEMBL4706583, “2-Anilinoquinoline based arylamides as broad spectrum anticancer agents with B-RAF/C-RAF kinase inhibitory effects: Design, synthesis, in vitro cell-based and oncogenic kinase assessments” (Eur J Med Chem, 2020)
